Results as given in ChEMBL document CHEMBL6096725, “Repurposing Linezolid in Conjunction with Histone Deacetylase Inhibitor Access in the Realm of Glioblastoma Therapies” (J Med Chem, 2025).
Calls of active or inactive are those of the source. The rule behind the calls is not given here.

Experiments:
TZM-resistant GBM cell [1] = experiment: Disruption of DNA repair in patient-derived human TMZ-resistant GBM cells assessed as decrease in CtIP level at 40 uM upto 80 hrs by Western blot analysis; assay type: functional, cell-based
TZM-resistant GBM cell [2] = experiment: Effect on cellular proliferation dynamics in patient-derived human TMZ-resistant GBM cells at 10 uM incubated for 72 hrs by RNA-seq analysis; assay type: functional, cell-based
TZM-resistant GBM cell [3] = experiment: Antitumor activity against patient-derived human TMZ-resistant GBM cells implanted in C57BL/6 mouse assessed as inhibition of tumor cell growth in brain at 10 to 20 mg/kg administered on every 3 days measured for 60 days in presence of TMZ; assay type: functional, organism-based; conditions: dose 10-20 mg/kg, time 60.0 day
TZM-resistant GBM cell [4] = experiment: Induction of cell cycle arrest in patient-derived human TMZ-resistant GBM cells assessed as accumulation of cells at G2/M phase at 1 to 20 uM; assay type: functional, cell-based; conditions: dose 1-20 µM
[5] = target: T1, Histone deacetylase (Homo sapiens) (UniProt Q13547+O15379+Q9UBN7+Q92769+Q9UQL6+Q8WUI4+Q9BY41+Q96DB2+P56524+Q9UKV0+Q969S8); experiment: Inhibition of HDAC in human U-87 MG cells assessed as increase in acetyl histone H3 at K4 sites at 10 uM incubated for 1 hr by Western blot analysis; assay type: cell-based
TZM-resistant GBM cell [6] = experiment: Disruption of DNA repair in patient-derived human TMZ-resistant GBM cells assessed as decrease in RPA32 level upto 80 uM incubated for 72 hrs by Western blot analysis; assay type: functional, cell-based
[7] = target: T1, Histone deacetylase (Homo sapiens); experiment: Inhibition of HDAC in human U-87 MG cells assessed as increase in acetyl histone H3 at K14 sites at 10 uM incubated for 1 hr by Western blot analysis; assay type: cell-based
[8] = target: T1, Histone deacetylase (Homo sapiens); experiment: Inhibition of HDAC in human U-87 MG cells assessed as increase in acetyl histone H3 at K18 sites at 10 uM incubated for 1 hr by Western blot analysis; assay type: cell-based
Mus musculus = experiment: In vivo antitumor activity against patient-derived human TMZ-resistant GBM cells implanted in C57BL/6 mouse assessed as increase in animal survival at 10 to 20 mg/kg administered on every 3 days measured for 60 days in presence of TMZ; assay type: functional, organism-based; conditions: dose 10-20 mg/kg, time 60.0 day
[9] = target: T1, Histone deacetylase (Homo sapiens); experiment: Inhibition of HDAC in human U-87 MG cells assessed as increase in acetyl histone H3 at K27 sites at 10 uM incubated for 1 hr by Western blot analysis; assay type: cell-based
[10] = target: T1, Histone deacetylase (Homo sapiens); experiment: Inhibition of HDAC in human U-87 MG cells assessed as increase in acetyl histone H3 at K9 sites at 10 uM incubated for 1 hr by Western blot analysis; assay type: cell-based
[11] = target: T1, Histone deacetylase (Homo sapiens); experiment: Inhibition of HDAC in human U-87 MG cells assessed as increase in acetyl histone H3 at K56 sites at 10 uM incubated for 1 hr by Western blot analysis; assay type: cell-based
TZM-resistant GBM cell [12] = experiment: Suppression of DNA replication in patient-derived human TMZ-resistant GBM cells by GSEA analysis; assay type: functional, cell-based
U-87 MG [13] = experiment: Disruption of DNA homologous recombination repair in human U-87 MG cells assessed as HR repaired cells at 2.5 uM incubated for 48 hrs by flow cytometry relative to control; assay type: functional, U-87MG ATCC
U-87 MG [14] = experiment: Disruption of DNA homologous recombination repair in human U-87 MG cells assessed as HR repaired cells at 5 uM incubated for 48 hrs by flow cytometry relative to control; assay type: functional, U-87MG ATCC
TZM-resistant GBM cell [15] = experiment: Suppression of mitotic nuclear division in patient-derived human TMZ-resistant GBM cells by GSEA analysis; assay type: functional, cell-based
TZM-resistant GBM cell [16] = experiment: Disruption of DNA repair in patient-derived human TMZ-resistant GBM cells assessed as decrease in CtIP level upto 80 uM incubated for 72 hrs by Western blot analysis; assay type: functional, cell-based
TMZ-resistant CT-2A cell [17] = experiment: Antitumor activity against mouse CT-2A cells implanted in C57BL/6 mouse assessed as tumor growth inhibition at 10 mg/kg, ip measured for 10 to 17 days by IVIS analysis; assay type: functional, organism-based; conditions: time 10-17 day
TZM-resistant GBM cell [18] = experiment: Disruption of DNA repair in patient-derived human TMZ-resistant GBM cells assessed as increase in ATM phosphorylation upto 80 uM incubated for 72 hrs by Western blot analysis; assay type: functional, cell-based
[19] = Drug uptake in C57BL/6 mouse brain at 360 mg/kg, ip measured after 30 mins by UPLC analysis; assay type: ADME, organism-based; conditions: in vivo, 0.5 h
[20] = target: T1, Histone deacetylase (Homo sapiens); experiment: Inhibition of HDAC in human U-87 MG cells assessed as increase in acetyl histone H3 at K8 sites at 10 uM incubated for 1 hr by Western blot analysis; assay type: cell-based
TZM-resistant GBM cell [21] = experiment: Induction of RAD51 degradation in human TMZ-resistant GBM cells assessed increase in RAD51 ubiquitination upto 20 uM incubated for 24 hrs by Western blot analysis; assay type: cell-based
TZM-resistant GBM cell [22] = experiment: Disruption of DNA repair in patient-derived human TMZ-resistant GBM cells assessed as decrease in RAD51 level at 40 uM upto 80 hrs by Western blot analysis; assay type: functional, cell-based
TMZ-resistant CT-2A cell [23] = experiment: Antitumor activity against mouse TMZ-resistant CT-2A cells implanted in C57BL/6 mouse assessed as tumor growth inhibition at 50 mg/kg, po measured for 17 to 25 days by IVIS analysis; assay type: functional, organism-based; conditions: time 17-25 day
TZM-resistant GBM cell [24] = experiment: Disruption of DNA repair in patient-derived human TMZ-resistant GBM cells assessed as decrease in RAD51 level upto 80 uM incubated for 72 hrs by Western blot analysis; assay type: functional, cell-based
TZM-resistant GBM cell [25] = experiment: Induction of cell cycle arrest in patient-derived human TMZ-resistant GBM cells assessed as decrease in accumulation of cells at G0/G1 phase at 1 to 20 uM; assay type: functional, cell-based; conditions: dose 1-20 µM
[26] = target: T1, Histone deacetylase (Homo sapiens); experiment: Inhibition of HDAC in human U-87 MG cells assessed as increase in acetyl histone H3 at K16 sites at 10 uM incubated for 1 hr by Western blot analysis; assay type: cell-based
[27] = target: T1, Histone deacetylase (Homo sapiens); experiment: Inhibition of HDAC in human U-87 MG cells assessed as increase in acetyl histone H3 at K5 sites at 10 uM incubated for 1 hr by Western blot analysis; assay type: cell-based
[28] = Drug uptake in C57BL/6 mouse plasma at 360 mg/kg, ip measured after 30 mins by UPLC analysis; assay type: ADME, organism-based; conditions: in vivo, 0.5 h
TZM-resistant GBM cell [29] = experiment: Disruption of DNA repair in patient-derived human TMZ-resistant GBM cells assessed as decrease in CtIP level at 20 uM upto 80 hrs by Western blot analysis; assay type: functional, cell-based
TZM-resistant GBM cell [30] = experiment: Disruption of DNA repair in patient-derived human TMZ-resistant GBM cells assessed as decrease in RAD51 level at 20 uM upto 80 hrs by Western blot analysis; assay type: functional, cell-based

## O=C(/C=C/c1ccc(CNC[C@H]2CN(c3ccc(N4CCOCC4)c(F)c3)C(=O)O2)cc1)NO
TZM-resistant GBM cell [1]
  Activity: Active; Rapid And Significant Decrease In Expression Observed Over Time
TZM-resistant GBM cell [2]
  Activity: Active
TZM-resistant GBM cell [3]
  inhibition: Active
TZM-resistant GBM cell [4]
  Activity: Active
[5]
  inhibition: Active
TZM-resistant GBM cell [6]
  Activity: Active
[7]
  inhibition: Active
[8]
  inhibition: Active
Mus musculus
  Activity: Active
[9]
  inhibition: Active
[10]
  inhibition: Active
[11]
  inhibition: Active
TZM-resistant GBM cell [12]
  Activity: Active
U-87 MG [13]
  Activity: 11.4%
U-87 MG [14]
  Activity: 5.06%
TZM-resistant GBM cell [15]
  Activity: Active
TZM-resistant GBM cell [16]
  Activity: Active
TMZ-resistant CT-2A cell [17]
  inhibition: Active
TZM-resistant GBM cell [18]
  Activity: Active; Result Suggests Activation Of Physiological Response To Dsbs Induced By Compound
[19]
  Drug uptake: Active
[20]
  inhibition: Active
TZM-resistant GBM cell [21]
  Activity: Active
TZM-resistant GBM cell [22]
  Activity: Active; Rapid And Significant Decrease In Expression Observed Over Time
TMZ-resistant CT-2A cell [23]
  inhibition: Active
TZM-resistant GBM cell [24]
  Activity: Active
TZM-resistant GBM cell [25]
  Activity: Active
[26]
  inhibition: Active
[27]
  inhibition: Active
[28]
  Drug uptake: Active

## C[C@@H]1C[C@@H]([C@H](O)CC2CC(=O)NC(=O)C2)C(=O)[C@@H](C)C1
TZM-resistant GBM cell [29]
  Activity: Active; Less Pronounced Effect Observed
TZM-resistant GBM cell [30]
  Activity: Active; Less Pronounced Effect Observed
